Several values for one entry are separate records, joined by “and”; a condition that tells them apart may be missing. Identical values can stand only once.
Target: SARS-CoV-2 Main Protease (SARS-CoV-2) (UniProt P0DTD1)

| SMILES | IC50 |
| --- | --- |
| O=C(Nc1cncc2ccccc12)C(NCC1CC1)c1ccc(Cl)c(Cl)c1 (configuration not stated) | 1.75 µM |
| O=C(Cn1nnc2ccccc21)N(Cc1cccc(Cl)c1)c1ccc(N2CCCCC2)cc1 | 3.65 µM |
| CN(C)C(=O)c1cc2c(NC(=O)C3CCOc4ccc(Cl)cc43)cncc2s1 (configuration not stated) | 0.399 µM |
| COc1ccccc1N1CCN(C(=O)c2cc(=O)[nH]c3ccccc23)CC1 | 32.8 µM |
| CCOC(=O)/C=C/N1CCN(S(=O)(=O)c2ccccc2)CC1 | 30 µM |
| Cc1cc(NC(=O)C2CCOc3ccc(Cl)cc32)ncc1N (configuration not stated) | > 99.5 µM |
| O=C(Nc1n[nH]c2ccncc12)C1CCOc2ccc(Cl)cc21 (configuration not stated) | 70.3 µM |
| COCc1csc(CNC(=O)c2ncc(Cl)cc2Cl)c1 | > 99.5 µM |
| CC(C)(C)c1ccc(N(C(=O)c2cocn2)C(C(=O)NCC(=O)Nc2cccc([N+](=O)[O-])c2)c2cccnc2)cc1 (configuration not stated) | 14.4 µM |
| COc1ccc2c(NC(=O)C3CN(S(=O)(=O)CC4(C#N)CC4)Cc4ccc(Cl)cc43)cncc2c1 (configuration not stated) | 0.342 µM |
| Nc1nn(C(=O)Cc2cccc(Cl)c2)c2cccnc12 | > 99.5 µM |
| CCc1cc(Br)ccc1Nc1cc(Cl)cc(CC(=O)Nc2cncc3ccccc23)c1 | 3.15 µM |
| O=C(Cc1cc(Cl)cc(Nc2cc(Cl)c(Br)cn2)c1)Nc1cncc2ccccc12 | 1.97 µM |
| CC(C)(C)c1ccc(N(C(=O)c2cocn2)C(C(=O)NCCc2cnc[nH]2)c2cccnc2)cc1 (configuration not stated) | 14.5 µM |
| COCc1csc(N(C(=O)c2cocn2)C(C(=O)NCCc2cccc(F)c2)c2cccnc2)n1 (configuration not stated) | > 99.5 µM |
| Cc1ccnnc1NC(=O)Cc1cccc(Cl)c1 | > 99.5 µM |
| O=C(Nc1cccnc1)c1cc(Cl)ccc1-c1ccccc1 | 39.1 µM |
| Cc1ccnc(NC(=O)C2CCOc3ccc(Cl)cc32)c1N (configuration not stated) | 71.6 µM |
| CC(C)(C)c1ccc(N(C(=O)c2cc(C3(O)COC3)on2)C(C(=O)NCCc2cccc(F)c2)c2cccnc2)cc1 (configuration not stated) | 26.2 µM |
| CNC(=O)Nc1ccc(N(C(=O)c2cocn2)C(C(=O)NCCc2cccc(F)c2)c2cccnc2)cc1 (configuration not stated) | > 99.5 µM |
| COCCCNCC1(C(=O)Nc2cncc3ccccc23)CCOc2ccc(Cl)cc21 (configuration not stated) | 11.4 µM |
| CC1(CS(=O)(=O)N2Cc3ccc(Cl)cc3C3(CCN(c4cncc5ccccc45)C3=O)C2)CS(=O)(=O)C1 (configuration not stated) | 0.144 µM |
| O=C(c1cc(=O)[nH]c2ccccc12)N1CCN(Cc2ccccc2)CC1 | 8.76 µM |
| CC(C)Oc1ccc(N(C(=O)c2cnc[nH]2)C(C(=O)NCCc2cccc(F)c2)c2cccnc2)cc1 (configuration not stated) | 0.857 µM and 0.592 µM |

| SMILES | IC50 |
| --- | --- |
| CC(=O)N(CC(=O)Nc1ccc(F)c(Cl)c1)c1cccc(C(F)(F)F)c1 | > 99.5 µM |
| C[n+]1ccn(CCc2cccc(Cl)c2)c1C#N | > 99.5 µM |
| N#CC1(CS(=O)(=O)N2Cc3ccc(Cl)cc3[C@H](C(=O)Nc3cncc4ccccc34)C2)CCS(=O)(=O)CC1 (stereo in doubt) | < 0.05 µM and 0.0814 µM and 0.0524 µM |
| CNC(=O)N1CCc2ccc(Cl)cc2C1C(=O)Nc1cncc2ccccc12 (configuration not stated) | 2.47 µM |
| N#CC1(CS(=O)(=O)N2Cc3ccc(Cl)cc3C3(CCN(c4cncc5c4CCCC5)C3=O)C2)CC1 (configuration not stated) | 0.515 µM |
| COC1CN(S(=O)(=O)N2Cc3ccc(Cl)cc3C3(CCN(c4cncc5ccccc45)C3=O)C2)C1 (configuration not stated) | 0.224 µM |
| N#Cc1ccc(Nc2cc(Cl)cc(CC(=O)Nc3cncc4ccccc34)c2)cc1Br | 2.16 µM |
| CS(=O)(=O)N1Cc2cc(F)c(Cl)cc2C(C(=O)Nc2cncc3ccccc23)C1 (configuration not stated) | 0.258 µM |
| CCCOc1c(Cl)cc(C(=O)N2CCC(C3CCNC3)CC2)cc1OCC (configuration not stated) | > 99.5 µM |
| Cc1noc2ncc(CNc3ccc(-c4nnnn4C)cc3)cc12 | > 99.5 µM |
| O=C(Cc1cc(O)cc(Cl)c1)Nc1cncc2ccccc12 | 9.89 µM |
| Cn1cc(CN(C(=O)Cn2nnc3ccccc32)c2ccc(N3CCCCC3)cc2)cn1 | > 99.5 µM |
| CN(C)C(=O)COCC(=O)NC(C(=O)Nc1cncc2ccccc12)c1cccc(Cl)c1 (configuration not stated) | 5.41 µM |
| O=C(Cc1cc(Cl)cc(N(C(=O)c2ccccc2)C2CCNCC2)c1)Nc1cncc2ccccc12 | 2.14 µM |
| CC(NC(=O)CN)(C(=O)Nc1cncc2ccccc12)c1ccc(Cl)c(Cl)c1 (configuration not stated) | 6.21 µM and 1.84 µM |
| Cc1ccc(NC2=C(c3ccccc3)C(=O)N(Cc3cccnc3)C2=O)c(C)c1 | > 99.5 µM |
| CCOC1CC2(C1)CC2N(C(=O)c1ccco1)C(C(=O)NCCc1cccc(F)c1)c1cccnc1 (configuration not stated) | > 99.5 µM |
| O=C(Cc1cc(Cl)cc(Nc2ccc3c(c2)OC(F)(F)O3)c1)Nc1cncc2ccccc12 | 2.07 µM |
| Cc1cc(Br)c(Cl)cc1Nc1cc(Cl)cc(CC(=O)Nc2cncc3ccccc23)c1 | 2.02 µM |
| O=C(Cc1cc(Cl)cc(N2CCc3ccccc3[C@H]2c2ccccc2)c1)Nc1cncc2ccccc12 (stereo in doubt) | 2.78 µM |
| Cc1ccc([N+](=O)[O-])c(Nc2cc(Cl)cc(CC(=O)Nc3cncc4ccccc34)c2)c1 | 2.26 µM |
| CC1(C(=O)Nc2cncc3c2CCCC3)CNS(=O)(=O)c2ccc(Cl)cc21 (configuration not stated) | > 99.5 µM |
| O=C(CN1CC(C(=O)Nc2cncc3cc(F)ccc23)c2cc(Cl)ccc2C1=O)NC1COC1 (configuration not stated) | 1.01 µM |
| CC(C)(C)c1ccc(N(C(=O)c2ccco2)C(C(=O)N2CCOCC2)c2cccnc2)cc1 (configuration not stated) | 41 µM |

| SMILES | IC50 |
| --- | --- |
| O=C(COC(=O)C1(c2ccccc2)CCC1)c1c[nH]c2ccccc12 | > 99.5 µM |
| O=C(CCl)N1CCCN(S(=O)(=O)c2ccc(F)cc2)CC1 | 44 µM |
| N#CC1(CS(=O)(=O)N2Cc3ccc(Cl)cc3C3(CCN(c4cncc5ccccc45)C3=O)C2)CCS(=O)(=O)CC1 (configuration not stated) | 0.211 µM |
| O=C(Cc1cc(Cl)cc(Nc2ccc(Cl)c(Cl)c2)c1)Nc1cncc2ccccc12 | 2.28 µM |
| CC(C)(C)c1ccc(N(C(=O)c2cocn2)C(C(=O)NCCc2cccc(F)c2)c2cccnc2)cc1 (configuration not stated) | 0.557 µM |
| CNC1CCc2c(NC(=O)C3CCOc4ccc(Cl)cc43)cncc21 (configuration not stated) | > 99.5 µM |
| O=C(c1cc(=O)[nH]c2ccccc12)N1CCN(Cc2cccc(C(F)(F)F)c2)CC1 | 34.2 µM |
| O=C(NCCc1cccc(F)c1)C(c1cccnc1)N(C(=O)c1cocn1)C1CCC2(CCO2)CC1 (configuration not stated) | > 99.5 µM |
| COc1ccccc1OCCNC(=O)c1cc(=O)ccn1C | > 99.5 µM |
| N#Cc1ccccc1NC(=O)[C@@H](c1ccccc1)N1Cc2ccccc2C1=O (stereo in doubt) | > 99.5 µM |
| Cc1ccncc1NC(=O)Nc1cccc(C#N)c1 | > 99 µM |
| CC(C)(C)c1ccc(N(C(=O)c2cocn2)C(C(=O)NCCc2nnn[nH]2)c2cccnc2)cc1 (configuration not stated) | > 99.5 µM |
| CCC(C)c1ccc(C(NCC(=O)Nc2ccc3[nH]c(=O)[nH]c3c2)c2cccs2)cc1 (configuration not stated) | > 99.5 µM |
| C=CC(=O)N(c1ccc(C(C)(C)C)cc1)C(C(=O)NCCSC)c1cccnc1 (configuration not stated) | 20.2 µM |
| O=C1C(=O)N(Cc2ccc(Br)cc2)c2ccccc21 | > 198 µM |
| Cc1cc(N)ncc1NC(=O)C1CCOc2ccc(Cl)cc21 (configuration not stated) | > 99.5 µM |
| CN(C)c1ccc(N(Cc2ccccc2)C(=O)Cn2nnc3ccccc32)cc1 | 5.05 µM |
| O=C(Nc1cncc2ccccc12)C1CN(C(=O)c2ncco2)Cc2ccc(Cl)cc21 (configuration not stated) | 0.918 µM |
| O=C(Cc1cc(Cl)cc(Nc2cc(C(F)(F)F)ccc2N2CCCC2)c1)Nc1cncc2ccccc12 | 3.51 µM |
| CSCCCNC(=O)C(c1cccnc1)N(C(=O)c1cocn1)c1ccc(C(C)(C)C)cc1 (configuration not stated) | 3.85 µM |
| NC(=O)C12COC(CNC(=O)CC3(C(=O)Nc4cncc5ccccc45)CCOc4ccc(Cl)cc43)(C1)C2 (configuration not stated) | 9.05 µM |
| COC(=O)c1cc(/C=c2\sc(=C(C#N)C#N)n(-c3cccc(C(F)(F)F)c3)c2=O)oc1C | > 99.5 µM |
| Cc1ccncc1NC(=O)Cc1cc(Cl)cc(CNS(C)(=O)=O)c1 | 16.6 µM |
| COc1ccccc1OCCNC(=O)c1cc(N)cc2ccccc12 | > 99.5 µM |

— the COVID Moonshot data (paper PMC7615835)
